Experiments:
HL-60 cells [1] = assay: Intracellular ruthenium quantification by energy dispersive X-ray spectrometer; format: cell-based, human; conditions: HL-60, 3 h, 500 µM
Procedure: Intracellular ruthenium quantification in HL-60 cells was evaluated by energy dispersive X-ray spectrometer (EDS)[23]. Cells were fixed in sodium cacodylate buffer (0.1 M sodium cacodylate solution pH 7.4, plus 2.5% glutaraldehyde and 2% paraformaldehyde) for at least 2 h. After washing, cells were dehydrated in an acetone series and embedded in polybed epoxy resin (Polysciences; Warrington, PA). Ultrathin sections were examined under a JEM-1230 transmission electron microscope (TEM) integrated with an EDS microanalytics system (JEOL USA, Inc., Peabody, MA, USA).

any cells = assay: Cytotoxicity, alamar blue assay, whole cell panel; format: cell-based; conditions: 72 h, not cytotoxic at concentrations tested
Procedure: (§1) Cytotoxicity was measured using alamar blue assay and was performed following the procedure that was described previously[21],[22]. Briefly, cells were inserted in 96-well plates and incubated overnight. Then, the complexes were dissolved in dimethyl sulfoxide (DMSO, LGC Biotechnology, São Paulo, SP, Brazil) and added to each well and incubated for 72 h. […] Before the end of treatment (4 h for cell lines and 24 h for PBMC), 20 μL of a stock solution (0.312 mg/mL) of alamar blue (resazurin, Sigma-Aldrich Co.) were added to each well. Absorbance at 570 nm and 600 nm was measured using SpectraMax 190 Microplate Reader (Molecular Devices, Sunnyvale, CA, USA).

[2] = test system: MRC-5 (human lung fibroblast); assay: Cytotoxicity, alamar blue assay; format: cell-based; conditions: non-cancer cells, 72 h, read-out: IC50 and 95% CI, MRC-5
Procedure: as §1

[3] = test system: HL-60 (human acute promyelocytic leukemia); assay: Cytotoxicity, alamar blue assay; format: cell-based; conditions: for Selectivity index, HL-60 versus MRC-5: SI = IC50[MRC-5]/IC50[HL-60]; for Selectivity index, HL-60 versus PBMC: SI = IC50[PBMC]/IC50[HL-60]; for IC50: alamar blue, 72 h, read-out: IC50 and 95% CI, HL-60
Procedure: as §1

B16-F10 (mouse melanoma) = assay: Cytotoxicity, alamar blue assay; format: cell-based; conditions: for Selectivity index, B16-F10 versus MRC-5: SI = IC50[MRC-5]/IC50[B16-F10]; for Selectivity index, B16-F10 versus PBMC: SI = IC50[PBMC]/IC50[B16-F10]
Procedure: as §1

[4] = test system: HCT116 (human colon carcinoma); assay: Cytotoxicity, alamar blue assay; format: cell-based; conditions: for Selectivity index, HCT116 versus MRC-5: SI = IC50[MRC-5]/IC50[HCT116]; for Selectivity index, HCT116 versus PBMC: SI = IC50[PBMC]/IC50[HCT116]
Procedure: as §1

[5] = test system: SCC-4 (human oral squamous cell carcinoma); assay: Cytotoxicity, alamar blue assay; format: cell-based; conditions: for Selectivity index, SCC-4 versus MRC-5: SI = IC50[MRC-5]/IC50[SCC-4]; for Selectivity index, SCC-4 versus PBMC: SI = IC50[PBMC]/IC50[SCC-4]
Procedure: as §1

[6] = test system: K-562 (human chronic myelogenous leukemia); assay: Cytotoxicity, alamar blue assay; format: cell-based; conditions: for Selectivity index, K-562 versus MRC-5: SI = IC50[MRC-5]/IC50[K-562]; for Selectivity index, K-562 versus PBMC: SI = IC50[PBMC]/IC50[K-562]
Procedure: as §1

[7] = test system: HepG2 (human hepatocellular carcinoma); assay: Cytotoxicity, alamar blue assay; format: cell-based; conditions: for Selectivity index, HepG2 versus MRC-5: SI = IC50[MRC-5]/IC50[HepG2]; for Selectivity index, HepG2 versus PBMC: SI = IC50[PBMC]/IC50[HepG2]
Procedure: as §1

[8] = test system: BAD KO SV40 MEF (immortalized mouse embryonic fibroblast with the BAD gene knocked out); assay: Cytotoxicity, alamar blue assay; format: cell-based; conditions: 72 h, read-out: IC50, BAD KO SV40 MEF cell line
Procedure: as §1

[9] = test system: WT SV40 MEF (wild-type immortalized mouse embryonic fibroblasts); assay: Cytotoxicity, alamar blue assay; format: cell-based; conditions: 72 h, read-out: IC50, WT SV40 MEF cell line
Procedure: as §1

[10] = test system: HSC-3 (human oral squamous cell carcinoma); assay: Cytotoxicity, alamar blue assay; format: cell-based; conditions: for Selectivity index, HSC-3 versus MRC-5: SI = IC50[MRC-5]/IC50[HSC-3]; for Selectivity index, HSC-3 versus PBMC: SI = IC50[PBMC]/IC50[HSC-3]; for IC50: alamar blue, 72 h, read-out: IC50 and 95% CI, HSC-3
Procedure: as §1

HL-60 cells [11] = assay: Apoptosis quantification, annexin V-FITC/PI flow cytometry; format: cell-based, human
Procedure: Shortly, cells were washed twice with saline solution and resuspended in 100 μL of binding buffer plus 5 μL of propidium iodide (PI) and 5 μL of FITC Annexin V. Then, cells were gently mixed by vortexing and incubated for 15 min at room temperature in the dark. Finally, 400 μL of binding buffer was added to each tube, and the cell fluorescence was determined by flow cytometry, as described above. Percentage of viable, early apoptotic, late apoptotic and necrotic cells were measured. […] Cells were then analyzed by FITC Annexin V Apoptosis Detection assay as described above.

[12] = test system: PBMC (human peripheral blood mononuclear cells); assay: Cytotoxicity, alamar blue assay; format: cell-based; conditions: non-cancer cells, 72 h, read-out: IC50 and 95% CI, PBMC
From the text: HL-60 (human acute promyelocytic leukemia), K-562 (human chronic myelogenous leukemia), HCT116 (human colon carcinoma), HepG2 (human hepatocellular carcinoma), HSC-3 (human oral squamous cell carcinoma), SCC-9 (human oral squamous cell carcinoma), B16-F10 (mouse melanoma), MRC-5 (human lung fibroblast), WT SV40 MEF (wild-type immortalized mouse embryonic fibroblast) and BAD KO SV40 MEF (BAD gene knockout immortalized mouse embryonic fibroblast) cell lines were obtained from American Type Culture Collection (ATCC, Manassas, VA, USA). Human peripheral blood mononuclear cells (PBMC) were isolated using standard Ficoll density gradient from heparinized blood collected from 20- to 35-year-old, non-smoker healthy donors with informed consent (number 031019/2013) approved by Human Ethics Committee of Gonçalo Moniz Institute from Oswaldo Cruz Foundation (IGM-FIOCRUZ/BA), and all experiments were performed in accordance with relevant guidelines and regulations. Cells were cultured as recommended by ATCC guidelines and a mycoplasma stain kit (Sigma-Aldrich) was used to validate the use of cells free from contamination. Cell viability in all experiments was examined using the trypan blue exclusion (TBE) assay. Over 90% of the cells were viable at the beginning of the culture.
as §1

HL-60 cells [13] = assay: Trypan blue exclusion assay; format: cell-based, human
Procedure: The number of viable cells and non-viable (take up trypan blue) were counted by TBE method. Shortly, 90 μL was removed from the cell suspension and 10 μL of trypan blue (0.4%) was added. Cell counting was performed using a light microscope with a neubauer chamber.

[14] = Toxicological evaluation in xenograft mice; format: in vivo, C.B-17 SCID mice; conditions: complex 1 20 and 40 mg/kg
Procedure: To assess toxicological aspects, mice were weighed at the beginning and at the end of the experiment as described previously by Rodrigues et al.[26]. […] Hematological analysis was performed using the Advia 60 hematology system (Bayer, Leverkusen, Germany). Livers, kidneys, lungs and hearts were removed, weighed and examined for any signs of macroscopic lesions, color changes and/or hemorrhages. After macroscopic examination, tumors, livers, kidneys, lungs and hearts were fixed in 4% formalin buffer and embedded in paraffin. Tissue sections were stained with hematoxylin/eosin staining, and a pathologist performed the histological analyses under optical microscopy.

HL-60 cell xenografts = assay: Human myeloid leukemia xenograft model; format: in vivo, C.B-17 SCID mice
Procedure: Fifty six specific-pathogen-free (SPF) C.B-17 severe combined immunodeficient (SCID) mice (females, 23–26 g) were used in this study. The animals were obtained and maintained at animal facilities from Gonçalo Moniz Institute-FIOCRUZ (Salvador, Bahia, Brazil), and housed in cages with free access to food and water, and kept under a 12:12 h light-dark cycle (lights on at 6:00 a.m.). The animals were treated according to ethical principles for animal experimentation of SBCAL (Brazilian Association of Laboratory Animal Science), Brazil. Experimental protocol have been approved (number 06/2015) by Animal Ethics Committee of Gonçalo Moniz Institute-FIOCRUZ (Salvador, Bahia, Brazil).
Human myeloid leukemia xenograft model was carry out as described previously by Rodrigues et al.[26] with minor modifications. HL-60 cells (2.5 × 10^7 cells/500 µL) were implanted subcutaneously into the left front armpit of the mice. […] When the tumors reached 100 to 200 mm^3 (22 days after HL-60 cells injection), the animals were treated through the intraperitoneal route (200 µL per animal) once a day for 13 consecutive days. One day after the end of the treatment, the animals were anesthetized, and peripheral blood samples were collected from brachial artery. Animals were euthanized by anesthetic overdose, and tumors were excised and weighed.

[15] = 20 mg/kg intraperitoneal once a day for 13 consecutive days
[16] = 40 mg/kg intraperitoneal once a day for 13 consecutive days

N.N.[Cl][Pt][Cl] [cisplatin]
Intracellular platinum (HL-60 cells [1]): able to quantify platinum

Cc1cc(=O)[nH]c(=S)[nH]1 [6-methyl-2-thiouracil]
IC50 (any cells): > 176 µM

[Ru(6m2tu)2(dppb)] [Complex 2]
IC50 [2]: 3.06 µM | Selectivity index, HL-60 versus MRC-5 [3]: 23.5 | Selectivity index, HL-60 versus PBMC [3]: 9.6 | IC50 [3]: 0.13 µM | Selectivity index, B16-F10 versus MRC-5 (B16-F10 (mouse melanoma)): 2.9 | Selectivity index, B16-F10 versus PBMC (B16-F10 (mouse melanoma)): 1.2 | Selectivity index, HCT116 versus MRC-5 [4]: 2.6 | Selectivity index, HCT116 versus PBMC [4]: 1.1 | Selectivity index, SCC-4 versus MRC-5 [5]: 2.5 | Selectivity index, SCC-4 versus PBMC [5]: 1 | Selectivity index, K-562 versus MRC-5 [6]: 9 | Selectivity index, K-562 versus PBMC [6]: 3.7 | Selectivity index, HepG2 versus MRC-5 [7]: 3.7 | Selectivity index, HepG2 versus PBMC [7]: 1.5 | IC50 [8]: 4.2 µM | IC50 [9]: 3.9 µM | Selectivity index, HSC-3 versus MRC-5 [10]: 1.5 | Selectivity index, HSC-3 versus PBMC [10]: 0.6 | IC50 [10]: 2.04 µM | Apoptosis (annexin V-FITC positive cells) (HL-60 cells [11]; HL-60, 12 h, 1 μM): no statistically significant apoptosis induction | Apoptosis (annexin V-FITC positive cells) (HL-60 cells [11]; HL-60, 12 h, 2 μM): 31.1% | Apoptosis (annexin V-FITC positive cells) (HL-60 cells [11]; HL-60, 24 h, 1 μM): 32.1% | Apoptosis (annexin V-FITC positive cells) (HL-60 cells [11]; HL-60, 24 h, 2 μM): 55.9% | IC50 [12]: 1.25 µM | Reduction of the number of viable cells (HL-60 cells [13]; HL-60, 12 h, 1 μM): no statistically significant reduction | Reduction of the number of viable cells (HL-60 cells [13]; HL-60, 12 h, 2 μM): 44.1% | Reduction of the number of viable cells (HL-60 cells [13]; HL-60, 24 h, 1 μM): 36.1% | Reduction of the number of viable cells (HL-60 cells [13]; HL-60, 24 h, 2 μM): 60.1%

O=C1[O][Pt]2([NH][C@@H]3CCCC[C@H]3[NH]2)[O]C1=O [oxaliplatin, reference compound]
IC50 [2]: 1.54 µM | IC50 (B16-F10 (mouse melanoma); alamar blue, 72 h, read-out: IC50 and 95% CI, B16-F10): 0.03 µM | Intracellular platinum (HL-60 cells [1]): able to quantify platinum | IC50 [12]: 14.9 µM

Cc1cc(=O)[nH]c([S][Ru]([S]c2nc(C)cc(=O)[nH]2)([PH](c2ccccc2)(c2ccccc2)c2ccccc2)[PH](c2ccccc2)(c2ccccc2)c2ccccc2)n1 [Complex 1, cis-[Ru(6m2tu)2(PPh3)2]]
IC50 [2]: 5.71 µM | Selectivity index, HL-60 versus MRC-5 [3]: 571 | Selectivity index, HL-60 versus PBMC [3]: 257 | IC50 [3]: 0.01 µM | Selectivity index, B16-F10 versus MRC-5 (B16-F10 (mouse melanoma)): 6.9 | Selectivity index, B16-F10 versus PBMC (B16-F10 (mouse melanoma)): 3.1 | Selectivity index, HCT116 versus MRC-5 [4]: 4.1 | Selectivity index, HCT116 versus PBMC [4]: 1.9 | Selectivity index, SCC-4 versus MRC-5 [5]: 3.5 | Selectivity index, SCC-4 versus PBMC [5]: 1.6 | Selectivity index, K-562 versus MRC-5 [6]: 28.6 | Selectivity index, K-562 versus PBMC [6]: 12.9 | Selectivity index, HepG2 versus MRC-5 [7]: 6 | Selectivity index, HepG2 versus PBMC [7]: 2.7 | IC50 [8]: 3.1 µM | IC50 [9]: 3.5 µM | Selectivity index, HSC-3 versus MRC-5 [10]: 1.3 | Selectivity index, HSC-3 versus PBMC [10]: 0.6 | IC50 [10]: 4.37 µM | Apoptosis (annexin V-FITC positive cells) (HL-60 cells [11]; HL-60, 12 h, 1 μM): no statistically significant apoptosis induction | Apoptosis (annexin V-FITC positive cells) (HL-60 cells [11]; HL-60, 12 h, 2 μM): 37.2% | Apoptosis (annexin V-FITC positive cells) (HL-60 cells [11]; HL-60, 24 h, 1 μM): 38.5% | Apoptosis (annexin V-FITC positive cells) (HL-60 cells [11]; HL-60, 24 h, 2 μM): 66.4% | IC50 [12]: 2.57 µM | Reduction of the number of viable cells (HL-60 cells [13]; HL-60, 12 h, 1 μM): no statistically significant reduction | Reduction of the number of viable cells (HL-60 cells [13]; HL-60, 12 h, 2 μM): 36.9% | Reduction of the number of viable cells (HL-60 cells [13]; HL-60, 24 h, 1 μM): 65.3% | Reduction of the number of viable cells (HL-60 cells [13]; HL-60, 24 h, 2 μM): 77.1% | Liver histopathology [14]: focal areas of steatosis were observed | Kidney histopathology ([14]; doxorubicin 0.1 mg/kg): Coagulation necrosis was observed in renal tubules | Lung histopathology ([14]; doxorubicin 0.1 mg/kg): inflammation was more evident | Mean of tumor mass weight (HL-60 cell xenografts; [15]): 0.4 ± 0.1 g | Tumor mass inhibition rate (HL-60 cell xenografts; [15]): 73.1% | Mean of tumor mass weight (HL-60 cell xenografts; [16]): 0.3 ± 0.1 g | Tumor mass inhibition rate (HL-60 cell xenografts; [16]): 79.9% | Tumor histomorphological analysis (HL-60 cell xenografts; 20 and 40 mg, hematoxylin/eosin): areas with nodular/encapsulated growth and extracellular matrix formation were more evident

Source: paper PMC6686011, “Ruthenium(II) complexes with 6-methyl-2-thiouracil selectively reduce cell proliferation, cause DNA double-strand break and trigger caspase-mediated apoptosis through JNK/p38 pathways in human acute promyelocytic leukemia cells” (Scientific Reports, 2019)
